Results taken from patent publication US5869524A, “Indene inhibitors of COX-2” (American Home Products Corporation, priority 1997, dated 1999).
One block for each molecule: values may come before it.

Columns and labels:
rhCOX-2 = molecular target: T1, rhCOX-2 (Homo sapiens, UniProt P35354); assay: Inhibition of rhCOX-2 (PGF2α by EIA, microsomal human recombinant enzyme); type: biochemical; details: value in parentheses = IC50; 30 min preincubation, 30 μM arachidonic acid, 37° C., pH 7.8; read-out: % inh of rhCOX-2 (IC50)
T1 construct: made in house; host or cells: Sf9 or CHO cells (microsomal preparation)
T1 sequence (P35354 18-604): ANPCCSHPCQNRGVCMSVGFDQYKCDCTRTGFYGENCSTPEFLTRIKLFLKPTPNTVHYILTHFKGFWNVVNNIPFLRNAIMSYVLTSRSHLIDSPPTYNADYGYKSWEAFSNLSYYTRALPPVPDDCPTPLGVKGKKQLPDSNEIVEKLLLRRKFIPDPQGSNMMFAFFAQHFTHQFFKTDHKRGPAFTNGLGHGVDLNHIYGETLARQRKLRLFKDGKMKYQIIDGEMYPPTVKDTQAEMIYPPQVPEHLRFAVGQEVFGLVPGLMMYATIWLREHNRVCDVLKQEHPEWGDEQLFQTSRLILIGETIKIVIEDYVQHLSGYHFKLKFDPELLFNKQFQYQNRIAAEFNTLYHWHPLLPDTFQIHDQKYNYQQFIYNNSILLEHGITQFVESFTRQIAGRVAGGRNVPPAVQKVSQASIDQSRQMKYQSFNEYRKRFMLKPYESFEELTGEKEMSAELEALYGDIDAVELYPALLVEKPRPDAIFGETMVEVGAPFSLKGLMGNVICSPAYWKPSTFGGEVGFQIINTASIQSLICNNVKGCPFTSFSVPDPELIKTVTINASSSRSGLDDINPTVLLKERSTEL
Procedure: A representative compound of this invention was evaluated for inhibition of COX-2 and COX-1 enzymes as follows. Human COX-1 and COX-2 cDNAs were cloned from human monocytes, untreated and LPS-treated respectively, by RT-PCR using oligonucleotide primers based on published hCOX-1 and hCOX-2 sequences (Jones et al., J. Biol. Chem., 268, 9049 (1993)). The cDNAs were then transfected into either Sf9 or CHO cells and subsequently converted into a microsomal preparation as described by Glaser et al (Eur. J. Pharmacol. 281, 107-111 (1995)). The microsomal human recombinant enzymes were diluted with buffer (100 mM Tris, pH 7.8 at 37° C.) containing 0.5 mM phenol (964 μl total volume). The enzyme preparations were preincubated with vehicle (DMSO) or compounds in DMSO (1% DMSO in final assay) for 30 min at 37° C. Excess hematin was added 1 min prior to initiation of reaction ([…] final hematin) with 30 μM arachidonic acid (sodium salt). […]
The reaction was incubated for 35 sec (maximum level of PGH2 accumulation as determined from time course studies), and terminated by addition of […] of SnCl2 (1 mg/ml) in 0.1N HCl. PGH2 is quantitatively converted to PGF2a by this reaction (50% efficiency of total conversion). […] Combined ethyl acetate extracts were dried under N2 (g) and redissolved in EIA buffer (2.0 ml), and PGF2α was quantified by EIA.

Alzheimer's disease = details: Rogers et al. 1993; cited from earlier work
COX-2 = details: cited from earlier work; for inhibition of COX-1 and COX-2, selectivity in words: literature
[1] = Futaki et al. 1993; cited from earlier work

IC50 (rhCOX-2): 27 nM
Structure (SMILES): CSc1ccc(/C=C2/C(C)=C(CC(=O)C3=C(O)COC3=O)c3cc(F)ccc32)cc1 [Example 1, (Z)-3-[[5-Fluoro-2-methyl-1-[[4-(methylthio)phenyl]methylene]-1H-inden-3-yl]acetyl]-4-hydroxy-2(5H)-furanone]

Structure (SMILES): COc1ccc2c(c1)c(CC(=O)O)c(C)n2C(=O)c1ccc(Cl)cc1 [Indomethacin]
treatment of Alzheimer's disease (Alzheimer's disease): useful in the treatment of Alzheimer's disease
inhibition of COX-1 and COX-2, selectivity in words (COX-2): relatively non-selective inhibitor of COX-1 and COX-2

Structure (SMILES): CS(=O)(=O)Nc1ccc([N+](=O)[O-])cc1OC1CCCCC1 [N-(2-cyclohexyloxy-4-nitrophenyl)methanesulfonamide]
antiinflammatory effect [1]: effective antiinflammatory
gastric side effects [1]: lacks gastric side effects
inhibition of COX-1 and COX-2, selectivity in words (COX-2): selective COX-2 inhibitor

Structure (SMILES): CCc1cccc2c3c([nH]c12)C(CC)(CC(=O)O)OCC3 (stereo not shown) [etodolac]
selectivity for inhibition of COX-2 (COX-2; fold, reported by Glaser et al. 1995): tenfold
